Test results published in article PMC4432287, “NsrR from Streptomyces coelicolor Is a Nitric Oxide-sensing [4Fe-4S] Cluster Protein with a Specialized Regulatory Function” (The Journal of Biological Chemistry, 2015).

Each molecule was assayed against T1, ScNsrR ([4Fe-4S] NsrR) (Streptomyces coelicolor, UniProt Q9L132) (assay: CD titration at […] nm, single-site fit).
T1 construct: untagged native full-length protein from pNsrR, E. coli BL21λDE3, anaerobic heparin purification, homodimer (~37 kDa by gel filtration); C-terminal His6 form (apo 17,474 Da) used for native MS
Format: binding

T1 sequence (Q9L132 whole entry): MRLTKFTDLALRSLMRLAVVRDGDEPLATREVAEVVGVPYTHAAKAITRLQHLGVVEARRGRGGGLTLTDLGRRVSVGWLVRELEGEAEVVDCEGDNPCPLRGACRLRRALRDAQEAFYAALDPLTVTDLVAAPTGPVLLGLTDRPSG

| SMILES | Kd |
| --- | --- |
| CCS [thioethane] | ~1.9 mM |
| OC(CS)C(O)CS (stereo not drawn) [dithiothreitol] | 9.9 mM |
| OCCS [β-mercaptoethanol] | ~3.8 mM |
